From patent US20260217767A1, “NOVEL A4B7 THIOETHER PEPTIDE DIMER ANTAGONISTS” (Protagonist Therapeutics, Inc., priority 2014, published 2026)
Where a SMILES comes first, the peptide text is derived from it.

Experiments:
[1] = Simulated Intestinal Fluid (SIF) Stability Assay; type: in vitro ADME; settings: pig, simulated intestinal fluid (SIF) with 1% porcine pancreatin, pH 6.5, porcine pancreatin, 37° C.; dimers, Table 7
Procedure, shortened: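 Peptide at 22 μM final was incubated at 37° C in blank FaSSIF pH 6.5 with 1% porcine pancreatin. Timed samples were quenched in acetonitrile/methanol/formic acid with internal standard and analysed by LC-MS/MS. Half-lives came from first-order exponential fits of percent remaining.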

α4β1 = molecular target: T1, α4β1 (Homo sapiens, UniProt P05556+P13612); assay: α4β1-VCAM Competition ELISA; type: binding; settings: thioether peptide dimers, Table 7; read-out: ELISA A4B1
T1 construct: purchased R&D Systems 5668-A4
Protocol: α4β1-VCAM Competition ELISA
A Nunc MaxiSorp plate was coated with rh VCAM-1/CD106 Fc chimera (R&D #862-VC) at 400 ng/well in 50 ul per well in 1×PBS and incubated overnight at 4° C. The solution was removed by shaking and then blocked with 250 ul of 1% BSA in 1×PBS per well. The wells were then incubated at room temperature for 1 hr with shaking. Each well was then washed once with wash buffer (50 mM Tris-HCl pH7.6, 100 mM NaCL, 1 mM MnCl2 or MgCl2, 0.05% Tween-20). 25 ul of serial dilutions of peptides starting at 200 μM in assay buffer (Assay buffer: 50 mM Tris-HCl pH7.6, 100 mM NaCl, 1 mM MnCl2 or MgCl2, 0.05% Tween-20) was added to each well. Additionally, 25 μl of α4β1 (R&D Systems #5668-A4) was added to each well at a fixed concentration of 120 nM. The final peptide and α4β1 concentrations were 100 μM and 60 nM, respectively. The plates were then incubated at 37° C. for 2 hr. The solution was then removed by shaking and each well was washed three times with wash buffer. 50 ul of 9F10 antibody at 4 ug/ml (purified mouse anti-human CD49d, BD Bioscience Cat #555502) was then added to each well, and the plate was incubated at room temperature for Ihr with shaking. The solution was again removed by shaking, and each well was washed three times with wash buffer. 50 μl of peroxidase-conjugated AffiniPure Goat anti-mouse IgG (Jackson immune research cat #115-035-003) diluted in 1:5000 in assay buffer was added to each well. The plate was incubated at room temperature for 30 min with shaking. Each well was then washed 3 times with wash buffer. 100 ul of TMB was then added to each well and closely observe during developing time. The reaction was stepped with 2N H2SO4 and absorbance was read at 450 nm.

Jurkat E6.1 cells = Jurkat E6.1 cells (Homo sapiens, UniProt P05556+P13612); assay: α4β1-VCAM Cell Adhesion Assay; type: cell-based; settings: thioether peptide dimers, Table 7; read-out: Cell Adhesion A4B1
Protocol: α4β1-VCAM Cell Adhesion Assay
Jurkat E6.1 cells (Sigma #88042803) were cultured in RPMI 1640 HEPES medium (Invitrogen #22400-089) supplemented with 10% serum (Fetal Bovine Serum, Invitrogen #16140-071), 1 mM sodium pyruvate (Invitrogen #11360-070), 2 mM L-glutamine (Invitrogen #25030-081) and Penicillin-Streptomycin (Invitrogen #15140-122) at 100 units of penicillin and 100 μg of streptomycin per ml. The cells were washed two times in DMEM medium (ATCC #30-2002) supplemented with 0.1% BSA, 10 mM HEPES pH 7 and 1 mM MnCl2. The cells were re-suspended in supplemented DMEM medium at a density of 4×10^6 cells/ml.
A Nunc MaxiSorp plate was coated with rh VCAM-1/CD106 Fc chimera (R&D #862-VC) at 400 ng per well in 50 μl per well in 1×PBS and incubated at 4° C. overnight. The solution was then removed by shaking, blocked with 250 μl per well PBS containing 1% BSA, and incubated at 37° C. for 1 hr. The solution was removed by shaking. Peptides were diluted by serial dilution in a final volume of 50 μl per well (2× concentration). To each well, 50 μl of cells (200,000 cells) were added and the plate was incubated at 37° C., 5% CO2 for 30-45 min to allow cell adhesion. The wells were washed manually three times (100 μl per wash) with supplemented DMEM. After the final wash, 100 μl/well of supplemented DMEM and 10 ul/well of MTT reagent (ATTC cat #30-1010K) were added. The plate was incubated at 37° C., 5% CO2 for 2-3 hrs until a purple precipitate is visible. 100 ul of Detergent Reagent (ATTC cat #30-1010K) is added to each well. The plate was covered from the light, wrapped in Parafilm to prevent evaporation, and left overnight at room temperature in the dark. The plate was shaken for 5 min and the absorbance at 570 nm is measured. To calculate the dose response, the absorbance value of control wells not containing cells was subtracted from each test well.

RPMI 8866 cells = molecular target: T2, RPMI 8866 cells (Homo sapiens, UniProt P13612+P26010); assay: α4β7-MAdCAM Cell Adhesion Assay; type: cell-based; settings: thioether peptide dimers, Table 7; read-out: Cell-Adhesion A4B7
T2 sequence (P13612 34-1032): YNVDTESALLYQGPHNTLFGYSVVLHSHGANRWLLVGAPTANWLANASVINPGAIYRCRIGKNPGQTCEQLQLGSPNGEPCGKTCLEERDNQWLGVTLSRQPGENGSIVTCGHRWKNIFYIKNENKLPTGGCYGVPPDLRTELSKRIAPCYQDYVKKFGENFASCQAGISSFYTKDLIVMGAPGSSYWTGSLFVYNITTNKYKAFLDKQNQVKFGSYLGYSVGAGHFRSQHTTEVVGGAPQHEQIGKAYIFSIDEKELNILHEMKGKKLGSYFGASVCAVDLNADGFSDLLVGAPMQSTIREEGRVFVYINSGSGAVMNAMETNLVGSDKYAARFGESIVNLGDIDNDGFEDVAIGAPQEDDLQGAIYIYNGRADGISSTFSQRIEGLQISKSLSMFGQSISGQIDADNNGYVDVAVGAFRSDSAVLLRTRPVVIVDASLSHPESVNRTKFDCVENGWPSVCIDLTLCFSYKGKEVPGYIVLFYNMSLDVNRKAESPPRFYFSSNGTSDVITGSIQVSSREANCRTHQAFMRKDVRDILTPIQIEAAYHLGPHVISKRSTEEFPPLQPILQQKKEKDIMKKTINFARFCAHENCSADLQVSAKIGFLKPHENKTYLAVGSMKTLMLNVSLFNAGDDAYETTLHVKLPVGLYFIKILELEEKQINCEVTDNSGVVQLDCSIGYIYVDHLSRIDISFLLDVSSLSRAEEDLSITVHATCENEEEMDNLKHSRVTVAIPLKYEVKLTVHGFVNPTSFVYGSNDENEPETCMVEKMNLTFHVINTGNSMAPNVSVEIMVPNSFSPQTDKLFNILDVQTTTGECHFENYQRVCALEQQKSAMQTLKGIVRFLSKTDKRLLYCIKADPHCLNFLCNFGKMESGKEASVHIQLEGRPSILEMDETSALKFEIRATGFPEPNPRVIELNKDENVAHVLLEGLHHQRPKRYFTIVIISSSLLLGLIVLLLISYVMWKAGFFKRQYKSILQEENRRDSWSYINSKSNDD
T2 sequence (P26010 20-798): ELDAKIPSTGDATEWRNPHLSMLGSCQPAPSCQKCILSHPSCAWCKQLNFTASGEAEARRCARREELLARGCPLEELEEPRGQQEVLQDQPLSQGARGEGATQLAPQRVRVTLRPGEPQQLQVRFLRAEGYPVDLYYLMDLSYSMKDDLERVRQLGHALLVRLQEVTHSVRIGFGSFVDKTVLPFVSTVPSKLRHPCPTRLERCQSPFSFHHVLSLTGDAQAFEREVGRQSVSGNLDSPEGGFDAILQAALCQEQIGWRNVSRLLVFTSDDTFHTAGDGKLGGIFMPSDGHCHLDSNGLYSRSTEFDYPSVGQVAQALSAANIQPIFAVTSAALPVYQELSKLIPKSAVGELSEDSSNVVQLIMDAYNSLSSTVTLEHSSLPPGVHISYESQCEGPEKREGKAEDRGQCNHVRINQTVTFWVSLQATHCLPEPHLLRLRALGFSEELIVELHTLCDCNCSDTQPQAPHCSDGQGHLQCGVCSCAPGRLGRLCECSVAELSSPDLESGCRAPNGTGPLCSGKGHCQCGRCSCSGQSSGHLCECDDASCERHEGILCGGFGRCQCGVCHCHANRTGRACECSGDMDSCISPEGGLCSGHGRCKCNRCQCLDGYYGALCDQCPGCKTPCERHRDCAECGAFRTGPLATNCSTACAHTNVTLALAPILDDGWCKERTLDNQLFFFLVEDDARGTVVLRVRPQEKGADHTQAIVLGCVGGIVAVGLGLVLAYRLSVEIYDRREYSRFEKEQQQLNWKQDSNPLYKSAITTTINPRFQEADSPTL
Procedure, shortened: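 RPMI 8866 cells (200,000/well) in DMEM with 1 mM MnCl2 and 0.1% BSA were allowed to adhere 30-45 min at 37° C to plates coated with rh MAdCAM-1/Fc (200 ng/well) in presence of serially diluted peptide. After washing, bound cells quantified by MTT, absorbance 570 nm, cell-free background subtracted.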

T1 sequence (P05556 21-728 limits assumed, one chain of several): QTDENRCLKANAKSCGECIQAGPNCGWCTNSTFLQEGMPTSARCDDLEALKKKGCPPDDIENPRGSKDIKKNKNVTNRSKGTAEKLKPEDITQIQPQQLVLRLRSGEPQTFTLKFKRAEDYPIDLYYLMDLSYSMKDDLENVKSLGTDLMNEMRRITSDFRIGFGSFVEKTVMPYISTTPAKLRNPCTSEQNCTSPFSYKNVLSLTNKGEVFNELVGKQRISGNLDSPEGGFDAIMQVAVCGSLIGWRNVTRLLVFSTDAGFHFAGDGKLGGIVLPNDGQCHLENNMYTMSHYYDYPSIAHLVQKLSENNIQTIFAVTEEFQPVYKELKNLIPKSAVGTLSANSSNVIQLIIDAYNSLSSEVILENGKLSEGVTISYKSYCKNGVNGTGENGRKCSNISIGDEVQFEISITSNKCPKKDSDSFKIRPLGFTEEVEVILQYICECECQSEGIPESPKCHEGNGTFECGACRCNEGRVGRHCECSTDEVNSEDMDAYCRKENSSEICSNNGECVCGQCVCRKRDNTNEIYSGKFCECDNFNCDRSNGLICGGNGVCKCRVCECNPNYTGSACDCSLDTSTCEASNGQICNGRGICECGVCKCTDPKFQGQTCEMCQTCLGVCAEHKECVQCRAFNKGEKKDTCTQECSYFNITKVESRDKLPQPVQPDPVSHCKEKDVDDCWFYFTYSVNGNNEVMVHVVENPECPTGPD
Chain of Jurkat E6.1 cells (P05556 21-798, one chain of several): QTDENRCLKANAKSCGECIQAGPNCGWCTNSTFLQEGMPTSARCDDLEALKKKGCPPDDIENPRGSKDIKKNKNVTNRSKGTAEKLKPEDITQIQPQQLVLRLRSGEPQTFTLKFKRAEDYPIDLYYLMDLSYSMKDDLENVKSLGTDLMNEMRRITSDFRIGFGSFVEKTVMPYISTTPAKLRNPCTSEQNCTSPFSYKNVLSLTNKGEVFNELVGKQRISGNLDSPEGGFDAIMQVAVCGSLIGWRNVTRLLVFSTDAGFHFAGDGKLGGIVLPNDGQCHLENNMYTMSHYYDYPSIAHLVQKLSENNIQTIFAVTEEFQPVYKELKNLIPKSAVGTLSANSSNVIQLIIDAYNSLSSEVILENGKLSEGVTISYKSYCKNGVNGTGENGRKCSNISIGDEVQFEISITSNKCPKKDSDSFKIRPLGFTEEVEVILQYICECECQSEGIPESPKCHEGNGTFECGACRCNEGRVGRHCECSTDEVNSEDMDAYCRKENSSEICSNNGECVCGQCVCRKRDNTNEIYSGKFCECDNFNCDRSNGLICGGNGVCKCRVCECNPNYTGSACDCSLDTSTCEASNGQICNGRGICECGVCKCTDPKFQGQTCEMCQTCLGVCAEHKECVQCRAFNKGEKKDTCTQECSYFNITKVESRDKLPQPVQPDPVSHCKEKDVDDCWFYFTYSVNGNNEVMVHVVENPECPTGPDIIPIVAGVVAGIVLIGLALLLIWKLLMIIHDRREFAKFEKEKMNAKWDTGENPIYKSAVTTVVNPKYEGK

SMILES	half-life at 22 μM [1]	IC50 (α4β1)	IC50 (Jurkat E6.1 cells)	IC50 (RPMI 8866 cells)
CC(C)C[C@@H]1NC(=O)[C@H]([C@@H](C)O)NC(=O)[C@H](CC(=O)O)NC(=O)[C@H](CO)NC(=O)[C@H](CCCNC(=N)N)N(C)C(=O)c2ccccc2CSC(C)(C)[C@@H](C(=O)N[C@@H](Cc2c[nH]c3ccccc23)C(=O)N[C@@H](CCC(=O)O)CC(=O)N[C@H](CCCCN)C(N)=O)NC1=O [compound 151] (HELM PEPTIDE1{[meR].S.D.T.L.[Pen].W.[O=C(O)CC[C@@H](CC(=O)[*:2])N[*:1]].[dK].[am]}|CHEM1{[O=C(c1ccccc1C[*:2])[*:1]]}$PEPTIDE1,CHEM1,1:R1-1:R1|PEPTIDE1,CHEM1,6:R3-1:R2$$$V2.0)	> 3 h	25 to 100 nM	–	–
CC(C)C[C@@H]1NC(=O)[C@H]([C@@H](C)O)NC(=O)[C@H](CC(=O)O)NC(=O)[C@H](CO)NC(=O)[C@H](CCCNC(=N)N)N(C)C(=O)c2ccccc2CSC(C)(C)[C@@H](C(=O)N[C@@H](Cc2ccc3ccccc3c2)C(=O)N[C@@H](CCC(=O)O)CC(=O)N[C@H](CCCCN)C(N)=O)NC1=O [compound 161]	> 3 h	25 to 100 nM	> 100000 nM	–
CC(C)C[C@@H]1NC(=O)[C@H]([C@@H](C)O)NC(=O)[C@H](CC(=O)O)NC(=O)[C@H](CO)NC(=O)[C@H](CCCNC(=N)N)N(C)C(=O)c2ccccc2CSC(C)(C)[C@@H](C(=O)N[C@@H](Cc2ccc(O)cc2)C(=O)N[C@@H](CCC(=O)O)C(=O)N[C@H](CCCCN)C(N)=O)NC1=O [compound 168] (HELM PEPTIDE1{[meR].S.D.T.L.[Pen].Y.E.[dK].[am]}|CHEM1{[O=C(c1ccccc1C[*:2])[*:1]]}$PEPTIDE1,CHEM1,1:R1-1:R1|PEPTIDE1,CHEM1,6:R3-1:R2$$$V2.0)	–	25 to 100 nM	> 100000 nM	–
CC(C)C[C@@H]1NC(=O)[C@H]([C@@H](C)O)NC(=O)[C@H](CC(=O)O)NC(=O)[C@H](CO)NC(=O)[C@H](CCCNC(=N)N)N(C)C(=O)c2ccccc2CSC(C)(C)[C@@H](C(=O)N[C@@H](Cc2c[nH]c3ccccc23)C(=O)N[C@H](CCC(=O)O)C(=O)N[C@@H](CCC(=O)O)C(=O)N[C@H](CCCCN)C(N)=O)NC1=O [compound 194] (HELM PEPTIDE1{[meR].S.D.T.L.[Pen].W.[dE].E.[dK].[am]}|CHEM1{[O=C(c1ccccc1C[*:2])[*:1]]}$PEPTIDE1,CHEM1,1:R1-1:R1|PEPTIDE1,CHEM1,6:R3-1:R2$$$V2.0)	–	100 to 1000 nM	–	< 25 nM
CC(C)C[C@@H]1NC(=O)[C@H]([C@@H](C)O)NC(=O)[C@H](CC(=O)O)NC(=O)[C@H](CO)NC(=O)[C@H](CCCNC(=N)N)N(C)C(=O)c2ccccc2CSC(C)(C)[C@@H](C(=O)N[C@@H](Cc2c[nH]c3ccccc23)C(=O)N[C@H](CCC(=O)O)C(=O)N[C@@H](CO)C(=O)N[C@H](CCCCN)C(N)=O)NC1=O [compound 191] (HELM PEPTIDE1{[meR].S.D.T.L.[Pen].W.[dE].S.[dK].[am]}|CHEM1{[O=C(c1ccccc1C[*:2])[*:1]]}$PEPTIDE1,CHEM1,1:R1-1:R1|PEPTIDE1,CHEM1,6:R3-1:R2$$$V2.0)	–	–	> 100000 nM	< 25 nM
